How the values were obtained:
Assay type in all cases: in vivo
[1] = system: Spodoptera littoralis; experiment: Example B7: Spodoptera littoralis (Egyptian cotton leaf worm), cotton leaf discs sprayed, L1 larvae; details: foliar, 72 h, application rate of 200 ppm, 3 days after infestation, read-out: control in at least one of the three categories (mortality, anti-feedant effect, or growth inhibition)
Experimental: Example B7: Spodoptera littoralis (Egyptian Cotton Leaf Worm)
Cotton leaf discs were placed onto agar in 24-well microtiter plates and sprayed with aqueous test solutions prepared from 10′000 ppm DMSO stock solutions. After drying the leaf discs were infested with five L1 larvae. The samples were assessed for mortality, anti-feeding effect, and growth inhibition in comparison to untreated samples 3 days after infestation. Control of Spodoptera littoralis by a test sample is given when at least one of the categories mortality, anti-feedant effect, and growth inhibition is higher than the untreated sample.

[2] = system: Chilo suppressalis; experiment: Example B3: Chilo suppressalis (striped rice stem borer), artificial diet, L2 larvae; details: 144 h, application rate of 200 ppm, 6 days after infestation, read-out: control in at least one of the three categories (mortality, anti-feedant effect, or growth inhibition)
Experimental: Example B3: Chilo suppressalis (Striped Rice Stem Borer)
24-well microtiter plates with artificial diet were treated with aqueous test solutions prepared from 10′000 ppm DMSO stock solutions by pipetting. After drying, the plates were infested with L2 larvae (6-8 per well). The samples were assessed for mortality, anti-feeding effect, and growth inhibition in comparison to untreated samples 6 days after infestation. Control of Chilo suppressalis by a test sample is given when at least one of the categories mortality, anti-feedant effect, and growth inhibition is higher than the untreated sample.

[3] = system: Plutella xylostella; experiment: Example B10: Plutella xylostella (diamondback moth), artificial diet, 96-well, eggs; details: 216 h, application rate of 500 ppm, 9 days after infestation, 96-well plates
Experimental: Example B10: Plutella xylostella (Diamondback Moth)
96-well microtiter plates containing artificial diet were treated with aqueous test solutions, prepared from 10′000 ppm DMSO stock solutions, by a liquid handling robot. After drying, eggs (˜30 per well) were infested onto a netted lid which was suspended above the diet. The eggs hatch and L1 larvae move down to the diet. The samples were assessed for mortality 9 days after infestation.
The following compounds gave an effect of at least 80% average mortality at an application rate of 500 ppm: […]

[4] = system: Diabrotica balteata; experiment: Example B1: Diabrotica balteata (corn root worm), maize sprouts sprayed, L2 larvae; details: 96 h, application rate of 200 ppm, 4 days after infestation, read-out: control in at least one of the two categories (mortality or growth inhibition)
Experimental: Example B1: Diabrotica balteata (Corn Root Worm)
Maize sprouts placed onto an agar layer in 24-well microtiter plates were treated with aqueous test solutions prepared from 10′000 ppm DMSO stock solutions by spraying. After drying, the plates were infested with L2 larvae (6 to 10 per well). The samples were assessed for mortality and growth inhibition in comparison to untreated samples 4 days after infestation.
The following compounds gave an effect of at least 80% control in at least one of the two categories (mortality or growth inhibition) at an application rate of 200 ppm: […]

[5] = system: Plutella xylostella; experiment: Example B4: Plutella xylostella (diamond back moth), artificial diet, 24-well, eggs; details: 192 h, application rate of 200 ppm, 8 days after infestation, 24-well plates, read-out: control in at least one of the two categories (mortality or growth inhibition)
Experimental: Example B4: Plutella xylostella (Diamond Back Moth)
24-well microtiter plates with artificial diet were treated with aqueous test solutions prepared from 10′000 ppm DMSO stock solutions by pipetting. After drying, Plutella eggs were pipetted through a plastic stencil onto a gel blotting paper and the plate was closed with it. The samples were assessed for mortality and growth inhibition in comparison to untreated samples 8 days after infestation. The following compounds gave an effect of at least 80% control in at least one of the two categories (mortality or growth inhibition) at an application rate of 200 ppm: […]

[6] = system: Euschistus heros; experiment: Example B2: Euschistus heros (neotropical brown stink bug), soybean leaves sprayed, N2 nymphs; details: 120 h, application rate of 200 ppm, 5 days after infestation, read-out: control in at least one of the two categories (mortality or growth inhibition)
Experimental: Example B2: Euschistus heros (Neotropical Brown Stink Bug)
Soybean leaves on agar in 24-well microtiter plates were sprayed with aqueous test solutions prepared from 10′000 ppm DMSO stock solutions. After drying the leaves were infested with N2 nymphs. The samples were assessed for mortality and growth inhibition in comparison to untreated samples 5 days after infestation.
The following compounds gave an effect of at least 80% control in at least one of the two categories (mortality or growth inhibition) at an application rate of 200 ppm: F2, F4, F6, F8, F12, F16.

[7] = system: Myzus persicae; experiment: Example B9: Myzus persicae (green peach aphid), sucrose solution, 96-well; details: 120 h, application rate of 50 ppm, 5 days after infestation, 96-well plates
Description: Example B9: Myzus persicae (Green Peach Aphid)
Test compounds prepared from 10′000 ppm DMSO stock solutions were applied by a liquid handling robot into 96-well microtiter plates and mixed with a sucrose solution. Parafilm was stretched over the 96-well microtiter plate and a plastic stencil with 96 holes was placed onto the plate. Aphids were sieved into the wells directly onto the Parafilm. The infested plates were closed with a gel blotting card and a second plastic stencil and then turned upside down. The samples were assessed for mortality 5 days after infestation.

[8] = system: Myzus persicae; experiment: Example B6: Myzus persicae (green peach aphid), intrinsic activity, sucrose solution, 24-well; details: 120 h, test rate of 12 ppm, 5 days after infestation
Description: Example B6: Myzus Persicae (Green Peach Aphid): Intrinsic Activity
Test compounds prepared from 10′000 ppm DMSO stock solutions were applied by pipette into 24-well microtiter plates and mixed with sucrose solution. The plates were closed with a stretched Parafilm. A plastic stencil with 24 holes was placed onto the plate and infested pea seedlings were placed directly on the Parafilm. The infested plate was closed with a gel blotting paper and another plastic stencil and then turned upside down. The samples were assessed for mortality 5 days after infestation.

CC(NC(=O)c1cc(Br)cc(OC(F)F)c1)c1ncnn1-c1ccc(C#N)cn1 (centres unmarked) [Compound F1, 3-bromo-N-[1-[2-(5-cyano-2-pyridyl)-1,2,4-triazol-3-yl]ethyl]-5-( ) difluoromethoxy benzamide]
≥ 80%: percent control (mortality, anti-feedant effect or growth inhibition) at 200 ppm [1] | percent control (mortality, anti-feedant effect or growth inhibition) at 200 ppm [2] | mortality at 500 ppm [3] | percent control (mortality or growth inhibition) at 200 ppm [4] | percent control (mortality or growth inhibition) at 200 ppm [5]

CC(NC(=O)c1cc(C(F)(F)F)cc(C(F)(F)F)c1)c1ncnn1-c1ccc(C#N)cn1 (centres unmarked) [Compound F3, N-[1-[2-(5-cyano-2-pyridyl)-1,2,4-triazol-3-yl]ethyl]-3,5-bis(trifluoromethyl) benzamide]
≥ 80%: percent control (mortality, anti-feedant effect or growth inhibition) at 200 ppm [1] | percent control (mortality, anti-feedant effect or growth inhibition) at 200 ppm [2] | mortality at 500 ppm [3] | percent control (mortality or growth inhibition) at 200 ppm [4] | percent control (mortality or growth inhibition) at 200 ppm [5]

CC(c1ncnn1-c1ncc(C#N)cn1)N(CC1CC1)C(=O)c1cc(C(F)(F)F)cc(C(F)(F)F)c1 (centres unmarked) [Compound F4, N-[1-[2-(5-cyanopyrimidin-2-yl)-1,2,4-triazol-3-yl]ethyl]-N-(cyclopropylmethyl)-3,5-bis(trifluoromethyl) benzamide]
≥ 80%: percent control (mortality, anti-feedant effect or growth inhibition) at 200 ppm [1] | percent control (mortality or growth inhibition) at 200 ppm [6] | percent control (mortality or growth inhibition) at 200 ppm [4]

CC(NC(=O)c1cc(SC(F)(F)F)cc(C(F)(F)F)c1)c1ncnn1-c1ccc(C#N)cn1 (centres unmarked) [Compound F5, N-[1-[2-(5-cyano-2-pyridyl)-1,2,4-triazol-3-yl]ethyl]-3-(trifluoromethyl)-5-(trifluoromethylsulfanyl) benzamide]
≥ 80%: percent control (mortality, anti-feedant effect or growth inhibition) at 200 ppm [1] | percent control (mortality, anti-feedant effect or growth inhibition) at 200 ppm [2] | mortality at 500 ppm [3] | percent control (mortality or growth inhibition) at 200 ppm [4] | percent control (mortality or growth inhibition) at 200 ppm [5]

Cc1nc(C(C)NC(=O)c2cc(OC(F)F)cc(C(F)(F)F)c2)n(-c2ccc(C#N)cn2)n1 (centres unmarked) [Compound F6, N-[1-[2-(5-cyano-2-pyridyl)-5-methyl-1,2,4-triazol-3-yl]ethyl]-3-(difluoromethoxy)-5-(trifluoromethyl) benzamide]
≥ 80%: percent control (mortality, anti-feedant effect or growth inhibition) at 200 ppm [1] | percent control (mortality or growth inhibition) at 200 ppm [6] | mortality at 50 ppm [7] | mortality at 12 ppm [8] | percent control (mortality or growth inhibition) at 200 ppm [4] | percent control (mortality or growth inhibition) at 200 ppm [5]

Cc1nc(C(C)NC(=O)c2cc(Br)cc(C(F)(F)F)c2)n(-c2ccc(C#N)cn2)n1 (centres unmarked) [Compound F8, 3-bromo-N-[1-[2-(5-cyano-2-pyridyl)-5-methyl-1,2,4-triazol-3-yl]ethyl]-5-(trifluoromethyl) benzamide]
≥ 80%: percent control (mortality, anti-feedant effect or growth inhibition) at 200 ppm [1] | percent control (mortality or growth inhibition) at 200 ppm [6] | mortality at 50 ppm [7] | mortality at 12 ppm [8] | percent control (mortality or growth inhibition) at 200 ppm [4] | percent control (mortality or growth inhibition) at 200 ppm [5]

Cc1nc(C(C)NC(=O)c2cc(C(F)F)cc(C(F)(F)F)c2)n(-c2ccc(C#N)cn2)n1 (centres unmarked) [Compound F9, N-[1-[2-(5-cyano-2-pyridyl)-5-methyl-1,2,4-triazol-3-yl]ethyl]-3-(difluoromethyl)-5-(trifluoromethyl) benzamide]
≥ 80%: percent control (mortality, anti-feedant effect or growth inhibition) at 200 ppm [1] | percent control (mortality, anti-feedant effect or growth inhibition) at 200 ppm [2] | mortality at 50 ppm [7] | mortality at 12 ppm [8] | percent control (mortality or growth inhibition) at 200 ppm [4] | percent control (mortality or growth inhibition) at 200 ppm [5]

CC(NC(=O)c1cc(C(F)(F)F)cc(C(F)(F)F)c1)c1nc(C2CC2)nn1-c1ccc(C#N)cn1 (centres unmarked) [Compound F10, N-[1-[2-(5-cyano-2-pyridyl)-5-cyclopropyl-1,2,4-triazol-3-yl]ethyl]-3,5-bis(trifluoromethyl) benzamide]
≥ 80%: percent control (mortality, anti-feedant effect or growth inhibition) at 200 ppm [1] | percent control (mortality, anti-feedant effect or growth inhibition) at 200 ppm [2] | mortality at 500 ppm [3] | percent control (mortality or growth inhibition) at 200 ppm [4] | percent control (mortality or growth inhibition) at 200 ppm [5]

CC(NC(=O)c1cc(SC(F)(F)F)cc(C(F)(F)F)c1)c1nc(C2CC2)nn1-c1ccc(C#N)cn1 (centres unmarked) [Compound F12, N-[1-[2-(5-cyano-2-pyridyl)-5-cyclopropyl-1,2,4-triazol-3-yl]ethyl]-3-(trifluoromethyl)-5-(trifluoromethylsulfanyl) benzamide]
≥ 80%: percent control (mortality, anti-feedant effect or growth inhibition) at 200 ppm [1] | percent control (mortality or growth inhibition) at 200 ppm [6] | percent control (mortality, anti-feedant effect or growth inhibition) at 200 ppm [2] | mortality at 500 ppm [3] | percent control (mortality or growth inhibition) at 200 ppm [4] | percent control (mortality or growth inhibition) at 200 ppm [5]

CC(NC(=O)c1cc(OC(F)(F)F)cc(C(F)(F)F)c1)c1ncnn1-c1ccc(C#N)cn1 (centres unmarked) [Compound F17, N-[1-[2-(5-cyano-2-pyridyl)-1,2,4-triazol-3-yl]ethyl]-3-(trifluoromethoxy)-5-(trifluoromethyl) benzamide]
≥ 80%: percent control (mortality, anti-feedant effect or growth inhibition) at 200 ppm [1] | percent control (mortality, anti-feedant effect or growth inhibition) at 200 ppm [2] | mortality at 500 ppm [3] | percent control (mortality or growth inhibition) at 200 ppm [4] | percent control (mortality or growth inhibition) at 200 ppm [5]

CC(NC(=O)c1cc(OCC(F)F)cc(C(F)(F)F)c1)c1ncnn1-c1ccc(C#N)cn1 (centres unmarked) [Compound F18, N-[1-[2-(5-cyano-2-pyridyl)-1,2,4-triazol-3-yl]ethyl]-3-(2,2-difluoroethoxy)-5-(trifluoromethyl) benzamide]
≥ 80%: percent control (mortality, anti-feedant effect or growth inhibition) at 200 ppm [1] | percent control (mortality, anti-feedant effect or growth inhibition) at 200 ppm [2] | mortality at 500 ppm [3] | percent control (mortality or growth inhibition) at 200 ppm [4] | percent control (mortality or growth inhibition) at 200 ppm [5]

CC(NC(=O)c1cc(OCC(F)(F)F)cc(C(F)(F)F)c1)c1ncnn1-c1ccc(C#N)cn1 (centres unmarked) [Compound F21, N-[1-[2-(5-cyano-2-pyridyl)-1,2,4-triazol-3-yl]ethyl]-3-(2,2,2-trifluoroethoxy)-5-(trifluoromethyl) benzamide]
≥ 80%: percent control (mortality, anti-feedant effect or growth inhibition) at 200 ppm [1] | percent control (mortality, anti-feedant effect or growth inhibition) at 200 ppm [2] | mortality at 500 ppm [3] | percent control (mortality or growth inhibition) at 200 ppm [4] | percent control (mortality or growth inhibition) at 200 ppm [5]

From patent US20210395217A1, “PESTICIDALLY ACTIVE AZOLE-AMIDE COMPOUNDS” (SYNGENTA PARTICIPATIONS AG, priority 2018, published 2021)
